According to ChEMBL document CHEMBL1154854, “Synthesis and antioxidant properties of enone core based dendrimers with carbazole as surface group” (Eur J Med Chem, 2010):
Values after ≈ are worked out from the molar mass of the structure shown. Active and inactive are the calls of the source. No cut-off for these calls is given here.

Columns and labels:
[1] = system: Radical scavenging activity; test: Antioxidant activity assessed as DPPH radical scavenging activity at 20 to 1000 ug/mL after 30 mins by spectrometric assay method; assay type: functional
[2] = system: Radical scavenging activity; test: Antioxidant activity assessed as DPPH radical scavenging activity after 30 mins by spectrometric assay method; assay type: functional

O=C1/C(=C/c2ccc(OCc3cc(OCc4cc(OCc5ccc(-n6c7ccccc7c7ccccc76)cc5)cc(OCc5ccc(-n6c7ccccc7c7ccccc76)cc5)c4)cc(OCc4cc(OCc5ccc(-n6c7ccccc7c7ccccc76)cc5)cc(OCc5ccc(-n6c7ccccc7c7ccccc76)cc5)c4)c3)cc2)CCC/C1=C\c1ccc(OCc2cc(OCc3cc(OCc4ccc(-n5c6ccccc6c6ccccc65)cc4)cc(OCc4ccc(-n5c6ccccc6c6ccccc65)cc4)c3)cc(OCc3cc(OCc4ccc(-n5c6ccccc6c6ccccc65)cc4)cc(OCc4ccc(-n5c6ccccc6c6ccccc65)cc4)c3)c2)cc1
Activity [1]: Active | IC50 [2]: 48 mg/L (≈ 15.6 µM)

Cc1c(C)c2c(c(C)c1O)CC[C@@](C)(CCC[C@H](C)CCC[C@H](C)CCCC(C)C)O2 [ALPHA-TOCOPHEROL]
IC50 [2]: 25 mg/L (≈ 58 µM)

O=C1O[C@H]([C@@H](O)CO)C(O)=C1O [ASCORBIC ACID]
IC50 [2]: 48 mg/L (≈ 273 µM)

O=C1/C(=C/c2ccc(OCc3cc(OCc4ccc(-n5c6ccccc6c6ccccc65)cc4)cc(OCc4ccc(-n5c6ccccc6c6ccccc65)cc4)c3)cc2)CCC/C1=C\c1ccc(OCc2cc(OCc3ccc(-n4c5ccccc5c5ccccc54)cc3)cc(OCc3ccc(-n4c5ccccc5c5ccccc54)cc3)c2)cc1
Activity [2]: Dose-dependent effect

COc1ccc(O)c(C(C)(C)C)c1.COc1ccc(O)cc1C(C)(C)C [BUTYLATED HYDROXYANISOLE]
IC50 [2]: 29 mg/L
